Data from publication PMC9245717, “Phylogenomic and functional characterization of an evolutionary conserved cytochrome P450-based insecticide detoxification mechanism in bees” (Proceedings of the National Academy of Sciences of the …, 2022).

Assays:
A. mellifera CYP9Q3 = target: T1, A. mellifera CYP9Q3 (Apis mellifera, UniProt A0A7M7LMV1); experiment: UPLC-MS/MS depletion and metabolite formation assay; assay type: biochemical; conditions: 10 µM substrate; NADPH regeneration system; 2 h, 30 °C; recombinant microsomes
T1 construct: gene LOC408453; recombinant, baculovirus, High-5 (Trichoplusia ni) cell microsomes; coexpressed with A. mellifera CPR (XP_006569769.1)
T1 sequence (A0A7M7LMV1 1-517): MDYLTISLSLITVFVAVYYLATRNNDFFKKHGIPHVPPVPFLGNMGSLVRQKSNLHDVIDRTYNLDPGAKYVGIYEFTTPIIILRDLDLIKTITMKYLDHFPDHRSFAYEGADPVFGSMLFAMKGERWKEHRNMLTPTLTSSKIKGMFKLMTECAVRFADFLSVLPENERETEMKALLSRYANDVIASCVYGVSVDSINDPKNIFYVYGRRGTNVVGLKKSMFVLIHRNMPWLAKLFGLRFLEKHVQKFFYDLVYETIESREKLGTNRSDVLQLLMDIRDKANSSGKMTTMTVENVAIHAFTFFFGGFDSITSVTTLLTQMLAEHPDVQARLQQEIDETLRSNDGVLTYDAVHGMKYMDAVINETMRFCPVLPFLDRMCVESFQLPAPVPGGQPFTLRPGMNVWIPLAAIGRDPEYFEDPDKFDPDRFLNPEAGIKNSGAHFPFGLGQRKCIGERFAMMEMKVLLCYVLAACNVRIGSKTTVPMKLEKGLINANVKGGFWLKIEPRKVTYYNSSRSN

Andrena vaga CYP9FT2 = system: T2, Andrena vaga CYP9FT2; experiment: fluorescent probe saturation kinetics, Michaelis-Menten; assay type: biochemical; conditions: NADPH; recombinant microsomes
T2 construct: recombinant, baculovirus, High-5 (Trichoplusia ni) cell microsomes; coexpressed with A. mellifera CPR (XP_006569769.1)

[1] = system: T3, Colletes cunicularius CYP9FZ2; experiment: as above; assay type: biochemical; conditions: NADPH; recombinant microsomes
T3 construct: recombinant, baculovirus, High-5 (Trichoplusia ni) cell microsomes; coexpressed with A. mellifera CPR (XP_006569769.1)

[2] = system: T4, Xylocopa violacea CYP9Q18; experiment: as above; assay type: biochemical; conditions: NADPH; recombinant microsomes
T4 construct: recombinant, baculovirus, High-5 (Trichoplusia ni) cell microsomes; coexpressed with A. mellifera CPR (XP_006569769.1)

[3] = system: T5, Melitta hemorrhoidalis CYP9FU3; experiment: as above; design: species or system Melitta haemorrhoidalis; conditions: NADPH; recombinant microsomes
T5 construct: recombinant, baculovirus, High-5 (Trichoplusia ni) cell microsomes; coexpressed with A. mellifera CPR (XP_006569769.1)

Row | SMILES | UPLC-MS/MS depletion and metabolite formation assay (A. mellifera CYP9Q3) | Km (Andrena vaga CYP9FT2) | Km [1] | Km [2] | Km [3]
1 | O=C1C=C(N(Cc2ccc(Cl)nc2)CC(F)F)CO1 [flupyradifurone] | FPF metabolite formation was remarkably uniform among all the P450s tested |  |  |  | 
2 | O=c1cc(C(F)(F)F)c2ccc(OCOCc3ccccc3)cc2o1 [BOMFC, 7-benzyloxymethoxy-4-trifluoromethyl coumarin] |  | 7.43 µM | 14.7 µM | 15.2 µM | 8.16 µM
